The assay concerns MCH receptors. The assay can be described thus: MCH receptor activity class (method not given). To be noted: class by percent of control at 10^-7 M or IC50.

Regarding `CN(C)c1nc(N[C@H]2CC[C@@H](NC(=O)Nc3ccc4ccccc4c3)CC2)nc2c1CCCC2` [compound 1863], the class is listed as 3 (Class 3 The value of percent of control at 10^−7 M was more than 60% or the value of IC50 was more than 200 nM.).

Regarding `CN(C)c1nc(N[C@H]2CC[C@@H](NC(=O)Nc3ccccc3Oc3ccccc3)CC2)nc2c1CCCC2` [compound 1864], the class was 3 (Class 3 The value of percent of control at 10^−7 M was more than 60% or the value of IC50 was more than 200 nM.).

On to `CSc1cccc(NC(=O)N[C@H]2CC[C@@H](Nc3nc4c(c(N(C)C)n3)CCCC4)CC2)c1` [compound 1865], for which the class is given as 3 (Class 3 The value of percent of control at 10^−7 M was more than 60% or the value of IC50 was more than 200 nM.).

Take `CN(C)c1nc(N[C@H]2CC[C@@H](NC(=O)Nc3cccc(SC(F)(F)F)c3)CC2)nc2c1CCCC2` [compound 1866]: the class was 3 (Class 3 The value of percent of control at 10^−7 M was more than 60% or the value of IC50 was more than 200 nM.).

On to `CN(C)c1nc(N[C@H]2CC[C@@H](NC(=O)NCc3ccc(Cl)c(Cl)c3)CC2)nc2c1CCCC2` [compound 1867], for which the class was 3 (Class 3 The value of percent of control at 10^−7 M was more than 60% or the value of IC50 was more than 200 nM.).

Turning to `COc1cc(NC(=O)N[C@H]2CC[C@@H](Nc3nc4c(c(N(C)C)n3)CCCC4)CC2)cc(OC)c1` [compound 1868], the class was 3 (Class 3 The value of percent of control at 10^−7 M was more than 60% or the value of IC50 was more than 200 nM.).

In the case of `Cc1cc(C)cc(NC(=O)N[C@H]2CC[C@@H](Nc3nc4c(c(N(C)C)n3)CCCC4)CC2)c1` [compound 1869], the class is reported as 3 (Class 3 The value of percent of control at 10^−7 M was more than 60% or the value of IC50 was more than 200 nM.).

Take `COC(=O)c1cccc(NC(=O)N[C@H]2CC[C@@H](Nc3nc4c(c(N(C)C)n3)CCCC4)CC2)c1` [compound 1870]: the class is 3 (Class 3 The value of percent of control at 10^−7 M was more than 60% or the value of IC50 was more than 200 nM.).

Consider `CCc1cccc(NC(=O)N[C@H]2CC[C@@H](Nc3nc4c(c(N(C)C)n3)CCCC4)CC2)c1` [compound 1871], for which the class is listed as 3 (Class 3 The value of percent of control at 10^−7 M was more than 60% or the value of IC50 was more than 200 nM.).

Turning to `CN(C)c1nc(N[C@H]2CC[C@@H](NC(=O)Nc3cc(F)cc(C(F)(F)F)c3)CC2)nc2c1CCCC2` [compound 1872], the class is 3 (Class 3 The value of percent of control at 10^−7 M was more than 60% or the value of IC50 was more than 200 nM.).

In the case of `CN(C)c1nc(N[C@H]2CC[C@@H](NC(=O)NCc3cccc(F)c3)CC2)nc2c1CCCC2` [compound 1873], the class is recorded as 3 (Class 3 The value of percent of control at 10^−7 M was more than 60% or the value of IC50 was more than 200 nM.).

For `CN(C)c1nc(N[C@H]2CC[C@@H](NC(=O)Nc3cccc([N+](=O)[O-])c3)CC2)nc2c1CCCC2` [compound 1874], the class is given as 3 (Class 3 The value of percent of control at 10^−7 M was more than 60% or the value of IC50 was more than 200 nM.).

For `CN(C)c1nc(N[C@H]2CC[C@@H](NC(=O)Nc3cccc(Oc4ccccc4)c3)CC2)nc2c1CCCC2` [compound 1875], the class is 3 (Class 3 The value of percent of control at 10^−7 M was more than 60% or the value of IC50 was more than 200 nM.).

For the molecule `CN(C)c1nc(N[C@H]2CC[C@@H](NC(=O)Nc3ccc(OC(F)F)cc3)CC2)nc2c1CCCC2` [compound 1876], the class is 3 (Class 3 The value of percent of control at 10^−7 M was more than 60% or the value of IC50 was more than 200 nM.).

As for `CCCCOC(=O)c1ccc(NC(=O)N[C@H]2CC[C@@H](Nc3nc4c(c(N(C)C)n3)CCCC4)CC2)cc1` [compound 1877], the class is listed as 3 (Class 3 The value of percent of control at 10^−7 M was more than 60% or the value of IC50 was more than 200 nM.).

With `CN(C)c1nc(N[C@H]2CC[C@@H](NC(=O)Nc3ccc(C(F)(F)F)cc3)CC2)nc2c1CCCC2` [compound 1878], the class is listed as 3 (Class 3 The value of percent of control at 10^−7 M was more than 60% or the value of IC50 was more than 200 nM.).

Regarding `CN(C)c1nc(N[C@H]2CC[C@@H](NC(=O)Nc3ccc(SC(F)(F)F)cc3)CC2)nc2c1CCCC2` [compound 1879], the class was 3 (Class 3 The value of percent of control at 10^−7 M was more than 60% or the value of IC50 was more than 200 nM.).

For the molecule `Cc1cc(NC(=O)N[C@H]2CC[C@@H](Nc3nc4c(c(N(C)C)n3)CCCC4)CC2)c([N+](=O)[O-])cc1C` [compound 1880], the class is on record as 3 (Class 3 The value of percent of control at 10^−7 M was more than 60% or the value of IC50 was more than 200 nM.).

For the molecule `CN(C)c1nc(N[C@H]2CC[C@@H](NC(=O)Nc3ccc(OCc4ccccc4)cc3)CC2)nc2c1CCCC2` [compound 1881], the class is recorded as 3 (Class 3 The value of percent of control at 10^−7 M was more than 60% or the value of IC50 was more than 200 nM.).

Turning to `CN(C)c1nc(N[C@H]2CC[C@@H](NC(=O)Nc3ccc(Cc4ccccc4)cc3)CC2)nc2c1CCCC2` [compound 1882], the class is listed as 3 (Class 3 The value of percent of control at 10^−7 M was more than 60% or the value of IC50 was more than 200 nM.).

Regarding `CN(C)c1nc(N[C@H]2CC[C@@H](NC(=O)Nc3ccc(Br)cc3Cl)CC2)nc2c1CCCC2` [compound 1883, N-(4-bromo-2-chlorophenyl)-N′-(cis-4-{[4-(dimethylamino)-5,6,7,8-tetrahydroquinazolin-2-yl]amino}cyclohexyl)urea], the class was 2 (Class 2: The value of percent of control at 10^−7 M was from 40% to 60% or the value of IC′50 was from 50 nM to 200 nM.).

As for `CN(C)c1nc(N[C@H]2CC[C@@H](NC(=O)Nc3ccc(Br)cc3F)CC2)nc2c1CCCC2` [compound 1884], the class is 3 (Class 3 The value of percent of control at 10^−7 M was more than 60% or the value of IC50 was more than 200 nM.).

For `Cc1cc(NC(=O)N[C@H]2CC[C@@H](Nc3nc4c(c(N(C)C)n3)CCCC4)CC2)ccc1Br` [compound 1885], the class is 3 (Class 3 The value of percent of control at 10^−7 M was more than 60% or the value of IC50 was more than 200 nM.).

As to `CN(C)c1nc(N[C@H]2CC[C@@H](NC(=O)Nc3ccc(Cl)cc3[N+](=O)[O-])CC2)nc2c1CCCC2` [compound 1886], the class is given as 3 (Class 3 The value of percent of control at 10^−7 M was more than 60% or the value of IC50 was more than 200 nM.).

`CN(C)c1nc(N[C@H]2CC[C@@H](NC(=O)Nc3ccc(Cl)c(C(F)(F)F)c3)CC2)nc2c1CCCC2` [compound 1887, N-4[4-chloro-3-(trifluoromethyl)phenyl]-N′-(cis-4-{[4-(dimethylamino)-5,6,7,8-tetrahydroquinazolin-2-yl]amino}cyclohexyl)urea]: the class is listed as 3 (Class 3 The value of percent of control at 10^−7 M was more than 60% or the value of IC50 was more than 200 nM.).

For the molecule `CCOc1ccc(NC(=O)N[C@H]2CC[C@@H](Nc3nc4c(c(N(C)C)n3)CCCC4)CC2)cc1` [compound 1888], the class was 3 (Class 3 The value of percent of control at 10^−7 M was more than 60% or the value of IC50 was more than 200 nM.).

Turning to `CN(C)c1nc(N[C@H]2CC[C@@H](NC(=O)Nc3ccc(F)cc3[N+](=O)[O-])CC2)nc2c1CCCC2` [compound 1889], the class is listed as 3 (Class 3 The value of percent of control at 10^−7 M was more than 60% or the value of IC50 was more than 200 nM.).

For `CN(C)c1nc(N[C@H]2CC[C@@H](NC(=O)Nc3ccc(F)c(C(F)(F)F)c3)CC2)nc2c1CCCC2` [compound 1890], the class is reported as 3 (Class 3 The value of percent of control at 10^−7 M was more than 60% or the value of IC50 was more than 200 nM.).

For `CCCCCCCOc1ccc(NC(=O)N[C@H]2CC[C@@H](Nc3nc4c(c(N(C)C)n3)CCCC4)CC2)cc1` [compound 1891], the class is 3 (Class 3 The value of percent of control at 10^−7 M was more than 60% or the value of IC50 was more than 200 nM.).

Regarding `CN(C)c1nc(N[C@H]2CC[C@@H](NC(=O)Nc3ccc(I)cc3)CC2)nc2c1CCCC2` [compound 1892], the class is listed as 3 (Class 3 The value of percent of control at 10^−7 M was more than 60% or the value of IC50 was more than 200 nM.).

Take `COc1ccc(NC(=O)N[C@H]2CC[C@@H](Nc3nc4c(c(N(C)C)n3)CCCC4)CC2)c([N+](=O)[O-])c1` [compound 1893]: the class was 3 (Class 3 The value of percent of control at 10^−7 M was more than 60% or the value of IC50 was more than 200 nM.).

Consider `Cc1ccc(NC(=O)N[C@H]2CC[C@@H](Nc3nc4c(c(N(C)C)n3)CCCC4)CC2)cc1[N+](=O)[O-]` [compound 1894], for which the class is reported as 3 (Class 3 The value of percent of control at 10^−7 M was more than 60% or the value of IC50 was more than 200 nM.).

`Cc1ccc(CNC(=O)N[C@H]2CC[C@@H](Nc3nc4c(c(N(C)C)n3)CCCC4)CC2)cc1` [compound 1895]: the class was 3 (Class 3 The value of percent of control at 10^−7 M was more than 60% or the value of IC50 was more than 200 nM.).

For `CCCCOc1ccc(NC(=O)N[C@H]2CC[C@@H](Nc3nc4c(c(N(C)C)n3)CCCC4)CC2)cc1` [compound 1896], the class was 3 (Class 3 The value of percent of control at 10^−7 M was more than 60% or the value of IC50 was more than 200 nM.).

Regarding `CCCCc1ccc(NC(=O)N[C@H]2CC[C@@H](Nc3nc4c(c(N(C)C)n3)CCCC4)CC2)cc1` [compound 1897], for the setting “MCH receptor”, the class is reported as 3 (Class 3 The value of percent of control at 10^−7 M was more than 60% or the value of IC50 was more than 200 nM.).

In the case of `CN(C)c1nc(N[C@H]2CC[C@@H](NC(=O)Nc3ccc(-c4ccccc4)cc3)CC2)nc2c1CCCC2` [compound 1898], under “MCH receptor”, the class is reported as 3 (Class 3 The value of percent of control at 10^−7 M was more than 60% or the value of IC50 was more than 200 nM.).

As to `COc1ccc(Cl)cc1NC(=O)N[C@H]1CC[C@@H](Nc2nc3c(c(N(C)C)n2)CCCC3)CC1` [compound 1899], the class (MCH receptor) is listed as 3 (Class 3 The value of percent of control at 10^−7 M was more than 60% or the value of IC50 was more than 200 nM.).

For `Cc1ccc(Cl)cc1NC(=O)N[C@H]1CC[C@@H](Nc2nc3c(c(N(C)C)n2)CCCC3)CC1` [compound 1900], the class (MCH receptor) is listed as 3 (Class 3 The value of percent of control at 10^−7 M was more than 60% or the value of IC50 was more than 200 nM.).

Values taken from patent US20050197350A1, “Novel quinoline, tetrahydroquinazoline, and pyrimidine derivatives and methods of treatment related to the use thereof” (TAISHO PHARMACEUTICAL CO., LTD., priority 2003, published 2005).
